According to paper PMC8333425, “Discovery of a dual Ras and ARF6 inhibitor from a GPCR endocytosis screen” (Nature Communications, 2021):
“And” between values parts separate entries of the source, which are not always exact repeats. Identical values can stand only once.

Key:
Format in all cases: cell-based, human
[1] = tested on: A549 cells; test: Cell viability assay (MTT), A549
Description: MDA-MB-231 breast cancer cells and A549 lung carcinomas (1500 cells in 150 μl/well) were seeded overnight on a clear 96-well plate. Twenty-four hours later, the cells were treated with 0.1% DMSO, or different concentrations of Rasarfin (as indicated), or 10 µM of 21.4, 21.8 (MDA-MB-231 breast cancer cells) or Doxorubicin for the indicated times at 37 °C. At each time point, 10 μl of 5 mg/ml MTT was added to each well and the plates were incubated for an additional 4 h at 37 °C. The absorbance at 590 nm was measured by plate reader. Experiments were done in triplicate and repeated three times.

[2] = tested on: B2R; test: Endosomal BRET assay of agonist-mediated B2R internalization (B2R-RlucII / Endo-rGFP)
Text: We performed a HT campaign in HEK293 cells using the bystander endosomal BRET sensor, which consists of a Renilla luciferase (RlucII)-tagged AT1R and an acceptor renilla GFP (rGFP) anchored to endosomes through an Endofin-FYVE (Endo-rGFP) domain[12]. AngII-mediated trafficking of AT1R to endosomes was screened against commercial libraries of ~115,000 small molecules (Fig. 1a and Supplementary Data 1). Because our assay is based on luminescence and fluorescence, we excluded 6610 compounds that quenched more than 50% of the luciferase or GFP signals. After excluding 5 AT1R antagonists, we conserved hit compounds blocking by more than 40%, as well as those potentiating by more than 100% receptor internalization. From this collection of 943 compounds, a second validation on AT1R internalization was performed using the same BRET assay, as well as on the agonist-mediated B2R internalization, this time using B2R-RlucII and Endo-rGFP. Only compounds that were revalidated on AT1R and affected B2R endocytosis were kept, which included forty hits (20 potentiators and 20 inhibitors) (Fig. 1b and Supplementary Data 2). We focused on inhibitors that were commercially available at the beginning of the project and tested their cell toxicity by microscopy, looking at cells expressing B2R tagged with YFP, which highlights cell contours and potential morphological changes, such as rounding up of cells following treatment with 50 μM of the compounds that may have indicated cell death. None of the inhibitors tested caused abnormal cell morphological changes when cells were treated with compounds as compared to DMSO-treated cells. Inhibitors were also assessed in terms of structure novelty, derivatization potential, and commercial availability of analogs (within 95–98% similarity from Tanimoto metric, Sci-Finder, https://scifinder-n.cas.org), for structure-activity relationship studies (SAR). They were scored 1–5, from best to worst. We excluded compounds with potential nucleophilic reactivity (e.g., Michael addition: compounds 7, 26, and 27), those reported to have biological activities (compounds 8, 20, 25, 30, and 35) and/or showing autofluorescence (compound 26). Compound 19 ranked high, but only had one other molecule with a similar structure available. Although other molecules could be interesting in their own rights as endocytosis inhibitors (e.g., compounds 1, 9, 11, 12, 13, 24, 31, and 37), we focused on compound 21 (Fig. 1c) because not only did it rank high in our analysis, but it was also the only compound with substantially more similar analogs commercially available at the time of these investigations. In the screen and the follow-up validation assay, 21 inhibited more than 50% AT1R internalization and more than 65% B2R internalization (Supplementary Data 2). […] Because β-arrestins are critically involved in GPCR endocytosis and trafficking in cells, we assessed 21’s effects on β-arrestins’ recruitment to AT1R and B2R at the PM using a BRET assay, as well as their trafficking into endosomes by microscopy.
HEK293SL cells were seeded at a density of 7.5 × 10^5 cells per 100-mm dish and 24 h later, transiently transfected as such. For receptor internalization experiments, cells were transfected with 0.12 μg AT1R-RlucII, B2R-RlucII, or β2AR-RlucII and 0.48 μg of either rGFP-CAAX (to assess removal from the PM) or rGFP-FYVE (to assess accumulation in the endosomes). For β-arrestin recruitment assays, cells were transfected with 0.48 μg of receptor-YFP along with 0.12 μg of β-arrestin-RlucII. For β-arrestin/AP-2 binding experiments, cells were transfected with 1 μg Flag-AT1R, 1 μg β2-Adaptin-YFP, and 0.12 μg β-arrestin2-RlucII. For G protein activation, cells were transfected with 3 μg of sp-Flag-AT1R along with either 4.5 μg of the Gαq-polycistronic BRET sensor or 0.24 μg of the Gαi3-RlucII and 0.6 μg of GFP10-Gγ2 and Gβ1 sensors or 0.12 μg PKN-RBD-RlucII and 0.48 μg of rGFP-CAAX. […]

[3] = tested on: B2R; test: Confocal microscopy of YFP-tagged B2R internalization; details: 50 μM; BK
Description: One day before transfection, cells were seeded in 35-mm glass-bottom dishes (MatTek Corporation) at a density of 1 × 10^5 cells per dish. For the recordings of receptor internalization, HEK293 SL cells were transfected with 2 μg of AT1R-YFP. For the recordings of β-arrestin-2 recruitment to the receptor, HEK293SL cells were transfected with 50 ng of β-arrestin2-YFP and 250 ng of Flag-AT1R or HA-B2R. Forty-eight hours post-transfection, cells were serum starved, preincubated with DMSO (0.1% final concentration) or Rasarfin (50 μM) for 30 min at 37 °C. AT1R-expressing cells were stimulated with angiotensinII (AngII; 100 nM) and B2R-expressing cells were stimulated with bradykinin (BK; 1 μM) for 30 min (receptor-YFP) or 15 min (β-arrestin2-YFP). Cells were imaged with Zeiss LSM-510 and/or LSM-710 laser scanning confocal microscope. To detect YFP, […] and BP 505–550 nm emission filter. Images (2048 × 2048) were collected using a 63x oil immersion lens.

## CC(C)C(=O)N1CCN(c2ccc(NC(=O)c3cc4ccccc4o3)cc2Cl)CC1 [Compound 21]
[1]; 10 µM of Rasarfin
  A549 cell viability (MTT), compared with MDA-MB-231 cells: more important cell viability effects
[1]; Rasarfin 0.5, 24h
  cell viability (MTT signal): 0.2876 and 0.2844 and 0.2473 and 0.4073 and 0.3734 and 0.2713
[1]; Rasarfin 1, 24h
  cell viability (MTT signal): 0.2899 and 0.2749 and 0.2483 and 0.4128 and 0.3694 and 0.3709
[1]; Rasarfin 2, 24h
  cell viability (MTT signal): 0.2852 and 0.2865 and 0.2518 and 0.3946 and 0.3796 and 0.386
[1]; Rasarfin 5, 24h
  cell viability (MTT signal): 0.2638 and 0.2592 and 0.2504 and 0.3187 and 0.2743 and 0.3116
[1]; Rasarfin 10, 24h
  cell viability (MTT signal): 0.2447 and 0.2619 and 0.2276 and 0.2701 and 0.2102 and 0.246
[1]; Rasarfin 10, 72h
  cell viability (MTT signal): 0.3944 and 0.2496 and 0.4081 and 0.2999 and 0.3697 and 0.3945
[2]; Homo sapiens, BK, into endosomes, read-out: IC50 for inhibition of B2R internalization
  IC50: 11 µM
[2]; Log [Comp21] (M) -4.3
  B2R internalization into endosomes, ligand-promoted BRET (Mean): 20.7288 percent compared to DMSO
[2]; Log [Comp21] (M) -4.6
  B2R internalization into endosomes, ligand-promoted BRET (Mean): 30.2526 percent compared to DMSO
[2]; Log [Comp21] (M) -5
  B2R internalization into endosomes, ligand-promoted BRET (Mean): 61.9767 percent compared to DMSO
[2]; Log [Comp21] (M) -5.3
  B2R internalization into endosomes, ligand-promoted BRET (Mean): 83.8073 percent compared to DMSO
[2]; Log [Comp 21] (M) -6
  B2R internalization into endosomes, ligand-promoted BRET (Mean): 104.977 percent compared to DMSO
[2]; Log [Comp21] (M) -6.3
  B2R internalization into endosomes, ligand-promoted BRET (Mean): 107.04 percent compared to DMSO
[2]; Log [Comp 21] (M) -7
  B2R internalization into endosomes, ligand-promoted BRET (Mean): 102.555 percent compared to DMSO
[2]; follow-up validation assay
  inhibition of B2R internalization: more than 65%
[2]; one experiment, negative = potentiation
  B2R Inhibition (%DMSO): 66.5725 %DMSO
[3]
  B2R localization by microscopy: remained trapped at the PM
